From patent US20230023802A1, “STABILIZED DRUG FORMULATIONS AND METHODS OF LOADING DRUG DELIVERY IMPLANTS” (THE METHODIST HOSPITAL SYSTEM, priority 2019, published 2023)
Counter-ions that a name gives are not always drawn. Like-named read-outs stand apart in the source and are kept apart here.

Key:
[1] = after 1 month, implant with 200 nm membrane in PBS sink, normalized to first time point
Description: Data are normalized to the values of day 1.
Urocanic acid was then tested. […] This formulation was loaded into an implant equipped with a 200 nm membrane. The implant was placed in 22 mL solution of PBS (the sink solution). The sink solution was replaced every 40 hours with fresh PBS. […] All results were normalized by the results of the first time point to compensate for the degradation that takes place in the sink solution.

physchem = settings: pH 7.4
[2] = pH=5.3

SMILES | percentage of tenofovir alafenamide in the released mixture of tenofovir derivatives [1] [%] | half-life (physchem) [h] | hydrolysis half-life (t1/2) [2] | percentage of tenofovir alafenamide in the released mixture of tenofovir derivatives ([1]; listed as free base tenofovir alafenamide) [%]
CC(C)OC(=O)[C@H](C)N[P@](=O)(CO[C@H](C)Cn1cnc2c(N)ncnc21)Oc1ccccc1 [tenofovir alafenamide fumarate] | 45 | – | – | –
CC(C)OC(=O)[C@H](C)N[P@](=O)(CO[C@H](C)Cn1cnc2c(N)ncnc21)Oc1ccccc1 [tenofovir alafenamide] | – | < 48 | over 4 months | 82
